This note sets out measurements from publication PMC6628435, “Chemical Synthesis, Proper Folding, Nav Channel Selectivity Profile and Analgesic Properties of the Spider Peptide Phlotoxin 1” (Toxins, 2019).

Bridge positions count the residues as written; N and C are the ends. Peptide text beside a SMILES is read from it. Some results are limits rather than exact numbers.

For this test, the target named is T1, hNav1.7 (Homo sapiens, UniProt Q15858).
T1 construct: expressed in transfected cells
The experiment in a line: Manual patch clamp, reversibility of block of hNav1.7 currents. In kind it is cell-based. The text has this:
Following our initial screen for the selectivity of synthetic PhlTx1 and the discovery that Nav1.7 was the main target, we decided to further evaluate the activity of PhlTx1. We used a CHO mammalian cell line expressing the human Nav1.7 instead of Xenopus oocytes for the pharmacological evaluation. To this end, we used an automated patch-clamp system, the Nanion syncropatch 384PE, and a standardized robotic method from Beckmann to apply PhlTx1 in the recording chambers and collect the kinetic information of Nav1.7 current from a high number of Nav1.7-expressing cells. The syncropatch 384PE has the potential to record from 384 cells at a time. 100-ms pulses from −100 mV to −10 mV were applied at a frequency of 0.2 Hz and various concentrations of PhlTx1 were applied to the cells. An example of a Nav1.7 current recording is illustrated in Figure 6A along with the effect of 100 nM PhlTx1. It is of interest to note that current inhibition develops over time at this PhlTx1 concentration that is above 50% at the end of a 13-min application time. […] Note that the highest achievable inhibition was 85%–92% for the two most efficient concentrations (333 nM and 1 μM). The time constant of inhibition was concentration-dependent as expected and could be fitted with decreasing mono-exponentials with time constants of 253 s (33 nM, n = 4), 159 s (100 nM, n = 8), 97 s (333 nM, n = 6) and 36 s (1 μM, n = 8). […] Using a manual patch clamp, which is better suited to investigate current recovery from block than an automated patch clamp that requires several washing steps, we investigated the reversibility properties of a PhlTx1 block. […] After 16 min of washout of 100 nM PhlTx1, we observed a maximum of 32% recovery of the blocked current that occurred with a time constant of 303 s. Since Nav1.4 and Nav1.6 were the two most sensitive channels to the PhlTx1 block, we also performed dose-response curves for these two channels with the automated patch clamp system.
Figure 6 PhlTx1 inhibition of Nav1.7 channels expressed in a mammalian cell line. […]
For orientation: In patch-clamp work, channel activity is measured electrically.

T1 sequence (Q15858 whole entry): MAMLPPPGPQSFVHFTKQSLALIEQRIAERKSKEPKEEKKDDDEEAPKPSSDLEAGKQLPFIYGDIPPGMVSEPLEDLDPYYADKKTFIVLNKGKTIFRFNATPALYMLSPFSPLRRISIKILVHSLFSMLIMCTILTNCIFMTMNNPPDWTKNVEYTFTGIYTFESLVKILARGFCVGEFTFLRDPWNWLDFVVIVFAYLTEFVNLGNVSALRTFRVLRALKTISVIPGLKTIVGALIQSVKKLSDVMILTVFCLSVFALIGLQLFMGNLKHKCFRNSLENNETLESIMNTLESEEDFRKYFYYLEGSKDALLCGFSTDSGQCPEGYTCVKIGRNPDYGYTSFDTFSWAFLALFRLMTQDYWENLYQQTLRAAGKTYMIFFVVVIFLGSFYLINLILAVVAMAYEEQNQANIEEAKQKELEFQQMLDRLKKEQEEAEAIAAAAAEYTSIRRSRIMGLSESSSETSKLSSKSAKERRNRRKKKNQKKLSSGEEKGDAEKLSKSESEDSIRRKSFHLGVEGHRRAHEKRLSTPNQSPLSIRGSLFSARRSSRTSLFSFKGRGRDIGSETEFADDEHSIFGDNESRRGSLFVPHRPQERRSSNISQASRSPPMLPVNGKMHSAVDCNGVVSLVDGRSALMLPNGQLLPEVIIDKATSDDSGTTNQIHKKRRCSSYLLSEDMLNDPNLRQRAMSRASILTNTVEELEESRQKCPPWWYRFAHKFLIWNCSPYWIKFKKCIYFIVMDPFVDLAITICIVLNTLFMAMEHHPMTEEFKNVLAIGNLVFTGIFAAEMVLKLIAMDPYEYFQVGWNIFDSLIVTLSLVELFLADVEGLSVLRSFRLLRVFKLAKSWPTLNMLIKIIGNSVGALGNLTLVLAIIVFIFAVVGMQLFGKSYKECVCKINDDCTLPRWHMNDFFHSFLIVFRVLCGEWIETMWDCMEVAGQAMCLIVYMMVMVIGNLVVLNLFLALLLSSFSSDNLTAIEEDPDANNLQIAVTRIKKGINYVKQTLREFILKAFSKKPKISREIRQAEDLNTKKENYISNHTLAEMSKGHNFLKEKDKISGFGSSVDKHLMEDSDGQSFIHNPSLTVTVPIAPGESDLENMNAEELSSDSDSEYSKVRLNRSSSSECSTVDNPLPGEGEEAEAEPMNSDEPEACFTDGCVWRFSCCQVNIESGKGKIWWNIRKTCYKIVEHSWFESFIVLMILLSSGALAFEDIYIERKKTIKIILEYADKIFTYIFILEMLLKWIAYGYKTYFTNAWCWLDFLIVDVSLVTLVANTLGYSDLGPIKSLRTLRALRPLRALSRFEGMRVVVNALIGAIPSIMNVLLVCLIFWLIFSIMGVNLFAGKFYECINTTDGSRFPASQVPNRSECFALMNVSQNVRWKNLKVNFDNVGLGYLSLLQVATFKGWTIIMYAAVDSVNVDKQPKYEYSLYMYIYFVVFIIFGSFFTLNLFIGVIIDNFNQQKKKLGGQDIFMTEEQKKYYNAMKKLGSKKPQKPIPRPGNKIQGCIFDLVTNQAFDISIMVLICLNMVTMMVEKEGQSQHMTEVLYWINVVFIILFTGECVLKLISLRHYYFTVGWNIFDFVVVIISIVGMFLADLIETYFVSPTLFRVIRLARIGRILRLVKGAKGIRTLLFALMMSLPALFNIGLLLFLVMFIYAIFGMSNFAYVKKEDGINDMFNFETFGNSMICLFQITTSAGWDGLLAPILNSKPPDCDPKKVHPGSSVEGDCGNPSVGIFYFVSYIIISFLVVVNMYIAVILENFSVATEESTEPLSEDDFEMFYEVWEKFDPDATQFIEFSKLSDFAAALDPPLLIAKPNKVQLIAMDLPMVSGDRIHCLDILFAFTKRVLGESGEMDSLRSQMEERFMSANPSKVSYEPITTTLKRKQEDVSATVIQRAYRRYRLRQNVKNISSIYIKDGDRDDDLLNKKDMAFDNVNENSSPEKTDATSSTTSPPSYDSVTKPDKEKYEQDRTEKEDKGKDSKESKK

On to `CC(C)C[C@@H]1NC(=O)[C@@H](NC(=O)[C@H](C)N)CSSC[C@@H]2NC(=O)[C@@H]3CSSC[C@@H](C(=O)N[C@@H](CCCNC(=N)N)C(=O)N[C@@H](Cc4ccc(O)cc4)C(=O)N[C@@H](CCCCN)C(=O)N[C@@H](CC(C)C)C(=O)N[C@@H](Cc4ccccc4)C(=O)O)NC(=O)[C@H](Cc4c[nH]c5ccccc45)NC(=O)[C@@H]4CCCN4C(=O)[C@H](Cc4ccc(O)cc4)NC(=O)[C@H](CCCCN)NC(=O)[C@H](Cc4c[nH]c5ccccc45)NC(=O)[C@H](CCC(=O)O)NC(=O)[C@H](CSSC[C@H](NC(=O)[C@H](CO)NC(=O)[C@H](CC(=O)O)NC(=O)[C@H](Cc4c[nH]c5ccccc45)NC(=O)[C@H](CCC(N)=O)NC(=O)CNC1=O)C(=O)N[C@@H](CC(=O)O)C(=O)N1CCC[C@H]1C(=O)N[C@@H](CCCCN)C(=O)N[C@@H](C)C(=O)N[C@@H](CO)C(=O)N[C@@H](CCCCN)C(=O)N3)NC(=O)[C@H](C)NC(=O)[C@H](Cc1ccc(O)cc1)NC(=O)[C@H](CC(N)=O)NC(=O)[C@@H]1CCCN1C2=O` [PhlTx1, Phlotoxin-1] (H-ACLGQWDSCDPKASKCCPNYACEWKYPWCRYKLF-OH; disulfide 2-17, 9-22, 16-29; N-terminus and C-terminus assumed), for which the reversibility of block result is “partially and poorly reversible”. Further, the “maximum recovery of the blocked current” value (after 16 min of washout of 100 nM PhlTx1, n = 5 cells) is on record as at most 32%. Besides, the “time constant of recovery from block” value (washout of 100 nM PhlTx1, n = 5 cells) came out at 303 s.
